Test system: Rats
Assay: Addiction of tramadol and clonidine tablets and compound tablets (withdrawal after 30 days of administration)
Conditions: for Body weight loss / Number of jumps: within one week after withdrawal; for Number of jumps and body weight loss compared with the blank control group (in words): after 30 consecutive days of administration
Procedure: Rats weighing approximately 150 g, half male and half female, were taken and randomly divided into 10 groups, that is, a blank control group, a morphine group, a tramadol group, a clonidine group, and compound tablet groups 1 to 6 (the rats in the compound tablet group 1 were administered with the compound tablets of Example 1, the rats in the compound tablet group 2 were administered with the compound tablets of Example 2, the rats in the compound tablet group 3 were administered with the compound tablets of Example 3, the rats in the compound tablet group 4 were administered with the compound tablets of Example 6, the rats in the compound tablet group 5 were administered with the compound tablets of Example 7, and the rats in the compound tablet group 6 were administered with the compound tablets of Example 10).
The rats were administered 3 times a day for 30 days. Administration methods were as follows: (1) the blank control group: PO (oral administration); and 0 mg/kg/time; (2) the morphine group: ip (intraperitoneal injection); and 5 mg/kg/time in week 1, 10 mg/kg/time in week 2, 20 mg/kg/time in week 3, and 30 mg/kg/time from day 22 to day 30; (3) the tramadol group: PO; and 25 mg/kg/time in week 1, 50 mg/kg/time in week 2, 100 mg/kg/time in week 3, and 200 mg/kg/time from day 22 to day 30; (4) the clonidine group: PO; and 0.075 mg/kg/time in week 1, 0.15 mg/kg/time in week 2, 0.3 mg/kg/time in week 3, and 0.6 mg/kg/time from day 22 to day 30; (5) the compound tablet groups: PO; and 25 mg/kg/time in week 1, 50 mg/kg/time in week 2, 100 mg/kg/time in week 3, and 200 mg/kg/time from day 22 to day 30. Withdrawal symptoms and body weight changes within one week after withdrawal of the rats in each group were observed.

[1] = PO 3 times a day for 30 days, 25/50/100/200 mg/kg/time rising by week
[2] = ip 3 times a day for 30 days, 5/10/20/30 mg/kg/time rising by week

COc1cccc(C2(O)CCCCC2CN(C)C)c1 (stereo not drawn) [Tramadol group, tramadol]
Body weight loss [1]: 9.6 ± 2.3 g | Number of jumps [1]: 17.3 ± 1.9 | Number of jumps and body weight loss compared with the blank control group (in words): extremely significant differences

CN1CC[C@]23c4c5ccc(O)c4O[C@H]2[C@@H](O)C=C[C@H]3[C@H]1C5 [Morphine group, morphine]
Number of jumps and body weight loss compared with the blank control group (in words): extremely significant differences | Body weight loss [2]: 10.1 ± 2.1 g | Number of jumps [2]: 20.1 ± 2.1

— patent publication US20240100020A1, “MEDICINE FOR RELIEVING OR E[…] […] AND PREPARATION METHOD THEREFOR” (Shenzhen ScienCare Pharmaceutical Co., Ltd., priority 2020, published 2024)
